Legend:
Type in all cases: in vivo
[1] = test system: Chenopodium album; test: Test Example 4: herbicidal effect by soil treatment (symbol O); details: application herbicide amount 320 g/ha
Outline: (§1)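 Seeds were sown in sterilized diluvial soil, covered with about 1.5 cm of soil, and the soil surface was sprayed with a water-diluted emulsion of the compound at a predetermined rate. Plants grew in a greenhouse at 25° C. to 30° C.; effects were scored visually 3 weeks after application.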

[2] = test system: Amaranthus retroflexus; test: Test Example 5: herbicidal effect by foliage application, plastic box (symbol N); details: 320 g/ha, 3 weeks after application
Outline: (§2)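 Leaf-applied emulsion, water-diluted to a preset herbicide dose, on two-week-old seedlings raised in a 25° C. to 30° C. greenhouse; injury rated at 3 weeks using earlier criteria.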

[3] = test system: Digitaria ciliaris; test: Test Example 4: herbicidal effect by soil treatment (symbol F)
Outline: as §1

[4] = test system: Abutilon theophrasti; test: Test Example 5: herbicidal effect by foliage application, plastic box (symbol M); details: 320 g/ha, 3 weeks after application
Outline: as §2

[5] = test system: Abutilon theophrasti; test: Test Example 4: herbicidal effect by soil treatment (symbol M)
Outline: as §1

[6] = test system: Echinochloa oryzacola Vasing.; test: Test Example 2: herbicidal activity, application during weed generation in submerged conditions (symbol A); details: Table 23; application herbicide amount 320 g/ha; grade 0-5 by criteria of Test Example 1
Outline: (§3)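 Each pot contained alluvial soil under 4 cm of water with seeds of all three weeds sown together. Following growth at 25° C. to 30° C. to the one- to two-leaf stage, the floodwater received diluted emulsion at a predetermined amount; visual assessment followed at 3 weeks.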

[7] = test system: Echinochloa oryzacola Vasing.; test: Test Example 1: herbicidal activity, application before weed generation in submerged conditions (symbol A); details: application herbicide amount 320 g/ha
Outline: (§4)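 Pre-emergence, paddy conditions: emulsifiable formulation diluted in water, dosed onto floodwater (4 cm depth) on sowing day. Alluvial soil; weeds sown mixed; rice transplanted at 2.5-leaf stage. Greenhouse 25–30 °C, 3 wk. Score 0–5 (5 = ≥90% kill, 0 = ≤5%).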

[8] = test system: Scirpus juncoides; test: Test Example 2: herbicidal activity, application during weed generation in submerged conditions (symbol B); details: Table 23; application herbicide amount 320 g/ha; grade 0-5 by criteria of Test Example 1
Outline: as §3

[9] = test system: Echinochloa crus-galli var. crus-galli; test: Test Example 5: herbicidal effect by foliage application, plastic box (symbol H); details: 320 g/ha, 3 weeks after application
Outline: as §2

[10] = test system: Alopecurus myosuroides; test: Test Example 4: herbicidal effect by soil treatment (symbol J)
Outline: as §1

[11] = test system: rice; test: Test Example 4: effect on crop by soil treatment (symbol b)
Outline: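 Plants are raised in a greenhouse (25° C. to 30° C.) from spot-sown seed, which sits under about 1.5 cm of sterilized diluvial soil in a box shared with weed species.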

[12] = test system: Avena fatua; test: Test Example 4: herbicidal effect by soil treatment (symbol I)
Outline: as §1

[13] = test system: rapeseed; test: Test Example 5: effect on crop by foliage application, plastic box (symbol g); details: 320 g/ha, 3 weeks after application
Outline: (§5)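 A greenhouse held between 25° C. and 30° C. was used to grow plants sown spot-wise, beneath ~1.5 cm of soil, in boxes of sterilized diluvial soil.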

[14] = test system: beet; test: Test Example 5: effect on crop by foliage application, plastic box (symbol f); details: 320 g/ha, 3 weeks after application
Outline: as §5

[15] = test system: Monochoria vaginalis; test: Test Example 2: herbicidal activity, application during weed generation in submerged conditions (symbol C); details: Table 23; application herbicide amount 320 g/ha; grade 0-5 by criteria of Test Example 1
Outline: as §3

[16] = test system: Monochoria vaginalis; test: Test Example 1: herbicidal activity, application before weed generation in submerged conditions (symbol C); details: application herbicide amount 320 g/ha
Outline: as §4

[17] = application herbicide amount 320 g/ha

Compound	N: Amaranthus retroflexus, herbicidal effect (criteria 0-5) [2]	F (Digitaria ciliaris) herbicidal effect grade [3, 17]	M: Abutilon theophrasti, herbicidal effect (criteria 0-5) [4]	M (Abutilon theophrasti) herbicidal effect grade [5, 17]	Herbicidal effect grade, A: Echinochloa oryzacola Vasing. [6]	Herbicidal effect grade, A: Echinochloa oryzacola Vasing. [7]	Herbicidal effect grade, B: Scirpus juncoides [8]	H: Echinochloa crus-galli var. crus-galli, herbicidal effect (criteria 0-5) [9]	J (Alopecurus myosuroides) herbicidal effect grade [10, 17]	b (directly sowed rice plant) effect on crop grade [11, 17]	I (Avena fatua) herbicidal effect grade [12, 17]	Herbicidal effect grade, C: Monochoria vaginalis [15]	Herbicidal effect grade, C: Monochoria vaginalis [16]	g: rapeseed, effect on crop (criteria 0-5) [13]	f: beet, effect on crop (criteria 0-5) [14]	other results
CON=C(C)CC1CC(OC(=O)COc2ccc(Cl)cc2Cl)=C(c2c(C)cc(C)cc2C)C1=O (stereo not shown) [1-075]	4 (Herbicidal ratio of 70% or higher and lower than 90%)	5 (Herbicidal ratio of 90% or more (almost completely withered))	4 (Herbicidal ratio of 70% or higher and lower than 90%)	5 (Herbicidal ratio of 90% or more (almost completely withered))	5 (Herbicidal ratio of 90% or more (almost completely withered))	5 (Herbicidal ratio of 90% or more (almost completely withered))	4 (Herbicidal ratio of 70% or higher and lower than 90%)	5 (Herbicidal ratio of 90% or more (almost completely withered))	5 (Herbicidal ratio of 90% or more (almost completely withered))	5 (Herbicidal ratio of 90% or more (almost completely withered))	–	–	–	–	–	O (Chenopodium album) herbicidal effect grade [1]: 0 (Herbicidal ratio of 5% or lower (almost no effect))
CC(=O)CC1CC(O)=C(c2c(C)cc(-c3ccc(OC(F)(F)F)cc3)cc2C)C1=O (stereo not shown) [7-016]	–	–	–	–	–	–	–	–	–	–	–	–	–	–	–	Herbicidal effect grade, O: Chenopodium album [1]: 0 (Herbicidal ratio of 5% or lower (almost no effect)); Herbicidal effect grade, I: Avena fatua [12, 17]: 0 (Herbicidal ratio of 5% or lower (almost no effect)); N: Amaranthus retroflexus, herbicidal effect (criteria of Test Example 1) [2]: 0 (Herbicidal ratio of 5% or lower (almost no effect)); Herbicidal effect grade, F: Digitaria ciliaris [3, 17]: 3 (Herbicidal ratio of 40% or higher and lower than 70%); M: Abutilon theophrasti, herbicidal effect (criteria of Test Example 1) [4]: 0 (Herbicidal ratio of 5% or lower (almost no effect)); Herbicidal effect grade, M: Abutilon theophrasti [5, 17]: 0 (Herbicidal ratio of 5% or lower (almost no effect)); g: rapeseed, effect on crop (criteria of Test Example 1) [13]: 0 (Herbicidal ratio of 5% or lower (almost no effect)); H: Echinochloa crus-galli var. crus-galli, herbicidal effect (criteria of Test Example 1) [9]: 1 (Herbicidal ratio of 5% or higher and lower than 20%); Herbicidal effect grade, J: Alopecurus myosuroides [10, 17]: 0 (Herbicidal ratio of 5% or lower (almost no effect)); f: beet, effect on crop (criteria of Test Example 1) [14]: 0 (Herbicidal ratio of 5% or lower (almost no effect)); Effect on crop grade, b: directly sowed rice plant [11, 17]: 0 (Herbicidal ratio of 5% or lower (almost no effect))
CON=C(C)CC1CC(OC(=O)C(C)(C)F)=C(c2c(C)cc(C)cc2C)C1=O (stereo not shown) [1-039]	–	5 (Herbicidal ratio of 90% or more (almost completely withered))	–	5 (Herbicidal ratio of 90% or more (almost completely withered))	5 (Herbicidal ratio of 90% or more (almost completely withered))	5 (Herbicidal ratio of 90% or more (almost completely withered))	5 (Herbicidal ratio of 90% or more (almost completely withered))	–	5 (Herbicidal ratio of 90% or more (almost completely withered))	5 (Herbicidal ratio of 90% or more (almost completely withered))	1 (Herbicidal ratio of 5% or higher and lower than 20%)	3 (Herbicidal ratio of 40% or higher and lower than 70%)	2 (Herbicidal ratio of 20% or higher and lower than 40%)	–	–	N: Amaranthus retroflexus, herbicidal effect grade [2]: 4 (Herbicidal ratio of 70% or higher and lower than 90%); M: Abutilon theophrasti, herbicidal effect grade [4]: 4 (Herbicidal ratio of 70% or higher and lower than 90%); g: rapeseed, effect on crop grade [13]: 4 (Herbicidal ratio of 70% or higher and lower than 90%); H: Echinochloa crus-galli var. crus-galli, herbicidal effect grade [9]: 5 (Herbicidal ratio of 90% or more (almost completely withered)); f: beet, effect on crop grade [14]: 3 (Herbicidal ratio of 40% or higher and lower than 70%)
CON=C(CC1CC(O)=C(c2c(C)cc(C)cc2C)C1=O)C1CCCC1 (stereo not shown) [1-078]	0 (Herbicidal ratio of 5% or lower (almost no effect))	–	0 (Herbicidal ratio of 5% or lower (almost no effect))	–	4 (Herbicidal ratio of 70% or higher and lower than 90%)	5 (Herbicidal ratio of 90% or more (almost completely withered))	0 (Herbicidal ratio of 5% or lower (almost no effect))	5 (Herbicidal ratio of 90% or more (almost completely withered))	–	–	–	0 (Herbicidal ratio of 5% or lower (almost no effect))	0 (Herbicidal ratio of 5% or lower (almost no effect))	3 (Herbicidal ratio of 40% or higher and lower than 70%)	0 (Herbicidal ratio of 5% or lower (almost no effect))	I: Avena fatua, herbicidal effect grade ([12]; 320 g/ha): 0 (Herbicidal ratio of 5% or lower (almost no effect)); F: Digitaria ciliaris, herbicidal effect grade ([3]; 320 g/ha): 5 (Herbicidal ratio of 90% or more (almost completely withered)); M: Abutilon theophrasti, herbicidal effect grade ([5]; 320 g/ha): 0 (Herbicidal ratio of 5% or lower (almost no effect)); J: Alopecurus myosuroides, herbicidal effect grade ([10]; 320 g/ha): 3 (Herbicidal ratio of 40% or higher and lower than 70%); b: directly sowed rice plant, effect grade on crop ([11]; 320 g/ha): 5 (Herbicidal ratio of 90% or more (almost completely withered))
CON=C(C)CC1CC(OC(=O)COc2ccc(F)cc2)=C(c2c(C)cc(C)cc2C)C1=O (stereo not shown) [1-073]	2 (Herbicidal ratio of 20% or higher and lower than 40%)	5 (Herbicidal ratio of 90% or more (almost completely withered))	4 (Herbicidal ratio of 70% or higher and lower than 90%)	5 (Herbicidal ratio of 90% or more (almost completely withered))	5 (Herbicidal ratio of 90% or more (almost completely withered))	5 (Herbicidal ratio of 90% or more (almost completely withered))	5 (Herbicidal ratio of 90% or more (almost completely withered))	5 (Herbicidal ratio of 90% or more (almost completely withered))	5 (Herbicidal ratio of 90% or more (almost completely withered))	5 (Herbicidal ratio of 90% or more (almost completely withered))	4 (Herbicidal ratio of 70% or higher and lower than 90%)	2 (Herbicidal ratio of 20% or higher and lower than 40%)	1 (Herbicidal ratio of 5% or higher and lower than 20%)	4 (Herbicidal ratio of 70% or higher and lower than 90%)	1 (Herbicidal ratio of 5% or higher and lower than 20%)	–
